We go through one molecule from US7635493B2, “Herbal composition for Tinea infection” (Piramal Life Sciences Limited, priority 2005, dated 2009).

One series has as its system TNF-α. Description: TNF-α production by LPS in human peripheral blood mononuclear cells (hPBMC), ELISA. Format: cell-based. As for the experimental part:
Assay for Screening in Human Peripheral Blood Mononuclear Cells (hPBMCs). TNF-α production by Lipopolysaccharide (LPS) in hPBMC was measured according to the method described by Jansky, L. et al (Physiol. Res. 52, 593-598, (2003)). Blood was collected from healthy donors into vacutainer tubes coated with potassium EDTA (Vacutest Plast) and diluted 1:2 with Dulbecco's Phosphate Buffered Saline (DPBS) (Sigma Aldrich, St. Louis, Mo.). The PBMC were harvested from human blood and suspended in RPMI 1640 culture medium (Gibco BRL, Pasley, UK) containing 10% fetal bovine serum (FBS) (Hyclone, Utah, USA), 100 U/ml penicillin (Sigma Chemical Co. St Louis, Mo.) and 100 μg/ml streptomycin (Sigma Chemical Co. St Louis, Mo.). The cell concentration was adjusted to 1×10^6 cells/ml. The cell suspension (100 μl) was added to the wells of a 96-well culture plate. Following cell plating, 79 μl of the culture medium and 1 μl of eight different concentrations of the test samples (10 to 100 μg/ml) dissolved in dimethylsulfoxide (DMSO, Sigma, Mo., USA) were added to the cells. The final concentration of DMSO was adjusted to 0.5-1%. Rolipram (100 μM) was used as a standard compound. The plates were incubated for 30 min at 37° C. in an atmosphere of 5% CO2. Finally, 20 μl (10 μg/ml) per well of LPS, (Escherchia coli 0127:B8, Sigma Chemical Co., St. Louis, Mo.) was added, to obtain a final concentration of 2 μg/ml. The plates were incubated at 37° C. for 5 h in an atmosphere of 5% CO2. Supernatants were harvested and assayed for % TNF-α inhibition by ELISA as described by the manufacturer (R&D Systems, MN) or by cytotoxicity bioassay in L929 cells.

The next series concerns L929 cells. Description: Cytotoxicity in L929 cell lines. In kind it is cell-based. Further details: Cytotoxicity in L929 cell lines: unit not given here.
The test system of another series is Microsporum gypseum. Description: In vitro anti-dermatophytic activity, agar dilution MIC. Format: cell-based. The settings on record: Nannizzia gypsea; M. gypseum; Sabarouds agar, 28° C./48 h. How it is done:
(§1) In vitro Assay Procedure.
(§2) Organisms: Trichophyton mentagrophytes & Microsporum gypseum.
(§3) Cultures were grown on PDA agar slants at 28° C. for 7 days. The growth was covered with sterile saline & scraped to get a growth suspension. The resulting mixture of conidia or sporangiospores & hypal fragments was transferred to a sterile test tube. The heavy particles were allowed to settle & upper homogenous suspension was transferred to another tube. These suspensions were adjusted to an optical density that ranged from 0.09 to 0.11 (80 to 82% transmittance) using a spectrophotometer. These stock suspensions were further diluted 1:10 with saline to obtain test inoculum (1×103 to 5×10^3 cfu/ml).
(§4) Ointment & Cream: A 100 mg/ml stock solution of ointment & cream of example 4 and 5 was prepared in demineralised water+0.01% Tween 20. Calculated amount of stock solution was added to 20 ml of Sabarouds melted agar medium & poured into petri plates so as to get a series of serial two fold dilution of the extract in the medium. Five concentrations of 100, 50, 25, 10 & 5 mg/ml were used for both formulations in initial study. A repeated study was carried out using lower concentrations of both the formulations. The concentrations used were 5, 1, 0.9, 0.8, 0.7, 0.6, 0.5, 0.4 0.3, 0.2 & 0.1 mg/ml.
(§5) Extract of Example 1 and Ethyl p-methoxycinnamate: […]

Series [1] deals with Trichophyton mentagrophytes. The description is as above. In kind it is cell-based. The conditions noted are these: T. mentagrophytes, Sabarouds agar, 28° C./48 h. How it is done:
as §1, §2, §3, §4, §5

For another series, the system named is dermatophytes. The settings on record: Lloydia, 39(4), 218-222, (1976); cited from earlier work.

In brackets after ≈: the same amount, converted by molar mass.

On to `CCOC(=O)C=Cc1ccc(OC)cc1` [Ethyl p-methoxycinnamate], for which the inhibition (commonly the drop in the measured response relative to a control, in per cent) at 10 µg/mL with TNF-α (PBMC, sample concentration 10 μg/ml, LPS-stimulated human cells, 5 h) amounted to 0%. Besides, 100 µg/mL produced 80% inhibition with TNF-α (PBMC, sample concentration 100 μg/ml, LPS-stimulated human cells, 5 h). Besides, the “TNF alpha activity inhibition (conclusion in words)” value in the series with TNF-α (conclusion from table 1) is listed as “inhibit TNF alpha activity”. Moreover, the “Cytotoxicity in L929 cell lines” value with L929 cells (10 μg/ml, 3.5 h) was 20; in the series with L929 cells (10 μg/ml, 24 h) it was 27; with L929 cells (100 μg/ml, 3.5 h) it was 12; with L929 cells (100 μg/ml, 24 h), 02. Further, the “Cytotoxicity (conclusion in words)” value with L929 cells (as measured in L929 cell lines) is recorded as “low cytotoxicity”. Also, the MIC (in the series with Microsporum gypseum; in series [1]) was 30 µg/mL (≈ 145 µM) in each case. Moreover, the “Anti-dermatophytic activity (reported)” value with dermatophytes was “reported to be anti-dermatophytic”.
